Here are results for seven compounds from patent publication US20070166299A1, “TREATMENT FOR EMBOLIC STROKE” (priority 2005, published 2007).

Read-outs that look alike come from different tables or passages of the source.

The subject of data set [1] is small clot embolic strokes in rabbits. The data set is described as follows: rabbit small clot embolic stroke model (RSCEM), quantal analysis of behavior. Type of data set: in vivo. An excerpt:
The invention used a rabbit small clot embolic stroke model (RSCEM) that reproduces many facets of human AIS including a well-defined clinical endpoint. The RSCEM utilizes administration of a suspension of small blood clots to induce strokes, and behavioral deficits that can be measured quantitatively. Moreover, the RSCEM is useful to conduct studies testing the effects of single drugs or drug combinations such as a neuroprotective agent (e.g., NXY-059) plus a thrombolytic (Tenecteplase, Alteplase, Desmoteplase and the like). Since it is likely that a drug combination will be used for patient management it is important to determine whether there are any interactions (positive or negative) between the compounds when administered following embolic strokes.
Methods: Male New Zealand white rabbits were anesthetized using halothane (5% induction, 2% maintenance by facemask), the bifurcation of the right carotid artery was exposed and the external carotid was ligated just distal to the bifurcation, where a catheter was inserted into the common carotid and secured with ligatures. The incision was closed around the catheter with the distal ends left accessible outside the neck; the catheter was filled with heparinized saline and plugged with an injection cap. Rabbits were allowed to recover from anesthesia for a minimum of 3 h until they awoke and behaved normally.
For the RSCEM, microclots were prepared from blood drawn from a donor rabbit and allowed to clot at 37° C. All rabbits in the study received injections of the same sized microclots. For embolization, clot particles were rapidly injected through the carotid catheter and both the syringe and catheter were flushed with 5 ml of normal saline.
Treatment Regimens: (A) Dose-Response Curve: NXY-059 was administered IV at a dose of 0.1-100 mg/kg infused over 30 min beginning 1 hour following embolization. (B) Therapeutic Window: NXY-059 (100 mg/kg) was given beginning 1, 3 or 6 hours following embolization. (C) Tenecteplase Dosing: Tenecteplase was administered IV at a dose of 0.9 mg/kg as a bolus injection given over one minute was administered 1 or 6 hours following embolization. (D) Combination studies: NXY-059 was administered IV at a dose of 100 mg/kg infused over 30 min and Tenecteplase was administered IV at a dose of 0.9 mg/kg beginning 1 or 6 hours following embolization.
Quantal Dose-Response Analysis: For the RSCEM, a quantal dose-response data analysis technique was used. A wide range of lesion volumes is induced to generate both normal and abnormal animals. Using 3 or more different doses of microclots generated each quantal analysis curve. […] Each animal is rated as either normal or abnormal (including dead animals), and inter-rater variability is very low (<5%). […] With this simple rating system, the composite result for a group of animals is quite reproducible. The P50 values are then calculated. These parameters are measures of the amount of microclots (in mg) that produce neurologic dysfunction in 50% of a group of animals. A separate curve is generated for each treatment condition that was tested. The data were analyzed using the t-test, which included the Bonferroni correction where appropriate.
Using the RSCEM model as described above male New Zealand white rabbits weighing 2.2-2.6 Kg were anesthetized and a catheter was inserted into the common carotid artery through which microclots were injected. Briefly, the bifurcation of one carotid artery was exposed and the external carotid was ligated just distal to the bifurcation. A catheter was inserted into the common carotid and secured with ligatures. The incision was closed around the catheter so that the distal end was accessible outside the animal's neck. The catheter was then filled with heparinized saline and plugged with an injection cap. Rabbits were allowed to recover from anesthesia until they were awake and behaving normally. […]

For data set [2] the following is noted: cited from earlier work.
The subject of data set [3] is spinal cord ischemia induced by temporary occlusion of the infrarenal aorta. Nature of the data set: rabbit reversible spinal cord ischemia model (RSCIM). Type of data set: in vivo. The method, then:
In a rabbit reversible spinal cord ischemia model (RSCIM). ABHS was administered (25 mg/kg) intravenously (i.v.) 5 or 30 min following the start of occlusion to groups of rabbits exposed to ischemia induced by temporary occlusion of the infrarenal aorta. The group P50 represents the duration of ischemia (min) associated with a 50% probability of resultant permanent paraplegia.

Where [4] appears, read: ABHS 25 mg/kg, 60 min following embolization.
Where [5] appears, read: ABHS 25 mg/kg, 180 min following embolization.
Where [6] appears, read: ABHS 25 mg/kg i.v., 5 min post-occlusion.

Turning to `CC12CC3CC(C)(C1)CC(N)(C3)C2` [memantine], the “effect on efficacy of low-dose tPA” value in data set [1] (memantine with low-dose tPA (FIG. 8)) is on record as “increases the efficacy of low-dose tPA: synergy”.
With “tPA: thrombolytic, tissue plasminogen activator; FDA-approved treatment for acute ischemic stroke”, the P50 in data set [1] (low-dose tPA 0.9 mg/kg alone, 60 min following embolization) came to 1.25 ± 0.25 mg; in data set [1] (tPA 3.3 mg/kg alone, 60 min after embolization (ABHS study)) it was 2.69 ± 0.19 mg; in data set [1] (tPA 3.3 mg/kg, 1 hour after embolization (CGA study)) it was 2.89 ± 0.29 mg; in data set [1] (tPA 3.3 mg/kg, 3 hours after embolization (CGA study)), 1.54 ± 0.27 mg. The “increase of hemorrhage rate” value in data set [2] (high dose of tPA 3.3 mg/kg) is listed as 52%; in data set [2] (low dose of tPA 0.9 mg/kg), 28%.
On to `O=C(C=Cc1ccc(O)c(O)c1)OC1CC(O)(C(=O)O)CC(O)C1O` (stereo not drawn) [CGA, 3-[[3-(3,4-Dihydroxyphenyl)-1-oxo-2-propenyl]oxy] 1,4,5-trihydroxycyclohexanecarboxylic acid], for which the P50 in data set [1] (CGA 50 mg/kg IV, 5 minutes following embolization, behavior 24 hours) stood at 3.61 ± 0.52 mg; in data set [1] (CGA 50 mg/kg single bolus, 1 hour post-embolization), 2.57 ± 0.28 mg; in data set [1] (CGA 50 mg/kg, 3 hours following embolization), 1.22 ± 0.24 mg.
As for `CC(=O)[C@H]1CC[C@H]2[C@@H]3CC[C@@H]4C[C@H](OC(=O)CCC(=O)O)CC[C@]4(C)[C@H]3CC[C@]12C` [ABHS, 3-alpha-ol-5-beta-pregnan-20-one hemisuccinate], the Observation entry in data set [1] (ABHS 25 mg/kg, 5 min following embolization) is listed as “Sedation”. Moreover, in data set [1] (setting [4]), the Observation result was “Sedation” and the P50 was found to be 1.05 ± 0.24 mg. Moreover, in data set [1] (setting [5]), the Observation entry is “Sedation” and the P50 is given as 1.42 ± 0.35 mg. Moreover, the “effect on therapeutic window for tPA” value in data set [1] (ABHS with tPA (FIG. 7)) is on record as “increases the therapeutic window for tPA”. Besides, the “duration of sedation (loss of righting reflex) after drug injection” value in data set [1] (IV ABHS administration to rabbits) fell in the range of 2 to 3 h. Also, in data set [3] (setting [6]), the “P50 (duration of ischemia associated with 50% probability of permanent paraplegia)” value worked out at 49.18 ± 10.44 min and the “increase of P50 over control” value came out at 110%. Further, in data set [3] (ABHS administered 30 min following the start of occlusion), the tolerance to ischemia entry is on record as “increased the tolerance to ischemia”. Moreover, the persistence of effect result in data set [3] (ABHS injected 5 min following the start of ischemia and again 24 h after ischemia) is on record as “persistent effect of the drug at 48 h”.
Regarding `CC(C)(C)[N+]([O-])=Cc1ccc(S(=O)(=O)O)cc1S(=O)(=O)O.[Na].[Na]` [NXY-059, disodium 2,4-disulfophenyl-N-tert-butylnitrone], the P50 in data set [1] (NXY-059 100 mg/kg IV, 1 hour following embolization, measured 24 hours after embolization) turned out to be 2.81 ± 0.46 mg; in data set [1] (NXY-059 100 mg/kg, 3 hours following embolization) it was 1.78 ± 0.42 mg. The “increase of P50 over vehicle control” value in data set [1] (NXY-059 1-100 mg/kg administered following embolization) was 100-134%. Moreover, the “effect on P50 (dose-response)” value in data set [1] (NXY-059 doses from 1-100 mg/kg, 1 hour following embolization) is on record as “significantly increased the P50”.
On to `O=c1cc(-c2ccccc2)oc2cc(O)c(O)c(O)c12` [Baicalein, 5,6,7 trihydroxyflavone], for which the P50 in data set [1] (Baicalein 100 mg/kg SC, 5 minutes following embolization) worked out at 2.85 ± 0.64 mg.
As to `O=c1c(O)c(-c2ccc(O)c(O)c2)oc2cc(O)ccc12` [Fisetin, fisetin], the P50 in data set [1] (Fisetin 50 mg/kg IV, 5 minutes following embolization) turned out to be 2.18 ± 0.42 mg.
